Measured values reported in US20240166635A1, “AMINOHETEROARYL KINASE INHIBITORS” (Anrui Biomedical Technology (Guangzhou) Co.,Ltd., priority 2020, published 2024).

Key:
Format in all cases: biochemical
CDK6/CyclinD1 = CDK6/CyclinD1 (Homo sapiens (Human), UniProt Q00534); test: CDK6/CyclinD1 kinase inhibitory activity (Caliper mobility shift); settings: read-out: CDK6/Cyclin D1 IC50
CDK4/Cyclin D1 = CDK4/Cyclin D1 (Homo sapiens (Human), UniProt P11802); test: CDK4/CyclinD1 kinase inhibitory activity (Caliper mobility shift)
CDK7/CyclinH/MAT1 = CDK7/CyclinH/MAT1 (Homo sapiens (Human), UniProt P50613); test: CDK7/CyclinH/MAT1 kinase inhibitory activity (Caliper mobility shift)
CDK9/CyclinT1 = CDK9/CyclinT1 (Homo sapiens (Human), UniProt P50750); test: CDK9/CyclinT1 kinase inhibitory activity (Caliper mobility shift); settings: read-out: CDK9/Cyclin T1 IC50
CDK1/CyclinB = CDK1/CyclinB (Homo sapiens (Human), UniProt P06493); test: CDK1/CyclinB kinase inhibitory activity (Caliper mobility shift); settings: read-out: CDK1/Cyclin B1 IC50
CDK2/CyclinE1 = CDK2/CyclinE1 (Homo sapiens (Human), UniProt P24941); test: CDK2/CyclinE1 kinase inhibitory activity (Caliper mobility shift); settings: read-out: CDK2/Cyclin El IC50

Sequence of CDK1/CyclinB (P06493 whole entry): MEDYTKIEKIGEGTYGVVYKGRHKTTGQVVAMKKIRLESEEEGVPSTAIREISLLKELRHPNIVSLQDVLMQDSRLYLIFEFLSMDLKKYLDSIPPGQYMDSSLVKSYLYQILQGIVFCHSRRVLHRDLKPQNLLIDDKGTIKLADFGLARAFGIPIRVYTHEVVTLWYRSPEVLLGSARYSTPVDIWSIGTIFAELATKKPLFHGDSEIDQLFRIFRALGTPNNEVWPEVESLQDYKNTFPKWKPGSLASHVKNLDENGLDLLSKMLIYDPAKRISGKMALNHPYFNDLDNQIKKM
Sequence of CDK1/CyclinB (P14635 whole entry partner): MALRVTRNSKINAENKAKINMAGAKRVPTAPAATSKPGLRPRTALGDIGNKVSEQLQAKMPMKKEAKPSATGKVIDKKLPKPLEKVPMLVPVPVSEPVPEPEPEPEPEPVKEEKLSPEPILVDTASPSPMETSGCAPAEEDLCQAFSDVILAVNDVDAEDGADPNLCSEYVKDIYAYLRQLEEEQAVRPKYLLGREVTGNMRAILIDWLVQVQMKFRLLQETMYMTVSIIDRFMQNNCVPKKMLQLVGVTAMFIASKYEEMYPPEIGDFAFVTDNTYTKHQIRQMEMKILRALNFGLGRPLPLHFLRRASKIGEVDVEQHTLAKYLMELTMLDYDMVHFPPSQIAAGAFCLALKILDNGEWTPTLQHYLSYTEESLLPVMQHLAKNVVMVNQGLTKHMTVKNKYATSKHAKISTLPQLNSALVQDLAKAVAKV
Sequence of CDK7/CyclinH/MAT1 (P50613 whole entry): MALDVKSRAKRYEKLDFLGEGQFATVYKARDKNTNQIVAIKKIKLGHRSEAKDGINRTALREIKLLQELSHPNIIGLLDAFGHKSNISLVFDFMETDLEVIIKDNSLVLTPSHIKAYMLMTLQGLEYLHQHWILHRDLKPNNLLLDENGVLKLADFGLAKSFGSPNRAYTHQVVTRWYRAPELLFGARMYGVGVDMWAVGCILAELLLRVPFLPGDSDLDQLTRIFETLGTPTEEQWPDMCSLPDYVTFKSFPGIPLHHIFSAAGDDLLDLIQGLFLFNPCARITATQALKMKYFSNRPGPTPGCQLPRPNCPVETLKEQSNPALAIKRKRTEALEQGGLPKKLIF
Sequence of CDK7/CyclinH/MAT1 (P51946 whole entry partner): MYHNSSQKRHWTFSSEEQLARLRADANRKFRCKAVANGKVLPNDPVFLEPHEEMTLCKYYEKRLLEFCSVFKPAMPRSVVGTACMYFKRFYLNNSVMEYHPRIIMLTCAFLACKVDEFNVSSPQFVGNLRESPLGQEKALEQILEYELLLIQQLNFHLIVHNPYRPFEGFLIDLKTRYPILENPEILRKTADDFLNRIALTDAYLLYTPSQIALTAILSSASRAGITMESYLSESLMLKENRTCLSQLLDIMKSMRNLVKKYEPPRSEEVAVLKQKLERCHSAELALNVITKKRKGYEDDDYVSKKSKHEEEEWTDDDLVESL
Sequence of CDK7/CyclinH/MAT1 (P51948 whole entry partner): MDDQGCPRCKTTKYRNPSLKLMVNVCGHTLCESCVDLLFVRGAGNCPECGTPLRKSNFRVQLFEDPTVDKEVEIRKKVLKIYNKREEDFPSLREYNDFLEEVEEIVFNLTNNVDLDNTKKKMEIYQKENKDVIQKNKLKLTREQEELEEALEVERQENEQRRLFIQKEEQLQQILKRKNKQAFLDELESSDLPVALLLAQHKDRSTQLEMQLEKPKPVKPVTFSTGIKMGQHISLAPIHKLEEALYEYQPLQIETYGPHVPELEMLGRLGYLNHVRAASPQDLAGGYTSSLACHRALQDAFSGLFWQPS
Sequence of CDK4/Cyclin D1 (P11802 whole entry): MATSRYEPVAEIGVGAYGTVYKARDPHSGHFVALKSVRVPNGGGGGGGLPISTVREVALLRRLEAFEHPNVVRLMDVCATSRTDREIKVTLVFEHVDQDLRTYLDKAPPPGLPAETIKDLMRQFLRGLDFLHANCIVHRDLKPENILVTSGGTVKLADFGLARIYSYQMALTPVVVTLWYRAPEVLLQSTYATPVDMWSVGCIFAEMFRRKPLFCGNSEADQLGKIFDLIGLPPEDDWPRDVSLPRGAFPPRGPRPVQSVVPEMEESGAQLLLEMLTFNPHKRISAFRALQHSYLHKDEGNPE
Sequence of CDK4/Cyclin D1 (P24385 whole entry partner): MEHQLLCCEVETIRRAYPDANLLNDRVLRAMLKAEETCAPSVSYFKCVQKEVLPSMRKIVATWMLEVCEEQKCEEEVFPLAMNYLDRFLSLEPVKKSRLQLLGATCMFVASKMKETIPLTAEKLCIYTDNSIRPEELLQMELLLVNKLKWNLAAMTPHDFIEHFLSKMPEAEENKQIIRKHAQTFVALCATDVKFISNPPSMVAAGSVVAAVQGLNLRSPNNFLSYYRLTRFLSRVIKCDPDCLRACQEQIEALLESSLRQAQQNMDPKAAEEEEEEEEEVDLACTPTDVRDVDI
Sequence of CDK9/CyclinT1 (P50750 whole entry): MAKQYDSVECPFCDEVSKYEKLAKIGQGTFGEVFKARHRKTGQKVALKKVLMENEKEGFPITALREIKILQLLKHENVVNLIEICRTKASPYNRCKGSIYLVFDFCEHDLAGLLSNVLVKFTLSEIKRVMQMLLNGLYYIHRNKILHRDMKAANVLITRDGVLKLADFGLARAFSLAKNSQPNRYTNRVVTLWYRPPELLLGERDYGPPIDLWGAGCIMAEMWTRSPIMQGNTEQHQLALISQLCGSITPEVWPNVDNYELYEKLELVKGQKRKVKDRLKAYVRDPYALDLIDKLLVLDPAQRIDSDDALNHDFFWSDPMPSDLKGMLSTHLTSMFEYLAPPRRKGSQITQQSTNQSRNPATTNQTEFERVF
Sequence of CDK9/CyclinT1 (O60563 whole entry partner): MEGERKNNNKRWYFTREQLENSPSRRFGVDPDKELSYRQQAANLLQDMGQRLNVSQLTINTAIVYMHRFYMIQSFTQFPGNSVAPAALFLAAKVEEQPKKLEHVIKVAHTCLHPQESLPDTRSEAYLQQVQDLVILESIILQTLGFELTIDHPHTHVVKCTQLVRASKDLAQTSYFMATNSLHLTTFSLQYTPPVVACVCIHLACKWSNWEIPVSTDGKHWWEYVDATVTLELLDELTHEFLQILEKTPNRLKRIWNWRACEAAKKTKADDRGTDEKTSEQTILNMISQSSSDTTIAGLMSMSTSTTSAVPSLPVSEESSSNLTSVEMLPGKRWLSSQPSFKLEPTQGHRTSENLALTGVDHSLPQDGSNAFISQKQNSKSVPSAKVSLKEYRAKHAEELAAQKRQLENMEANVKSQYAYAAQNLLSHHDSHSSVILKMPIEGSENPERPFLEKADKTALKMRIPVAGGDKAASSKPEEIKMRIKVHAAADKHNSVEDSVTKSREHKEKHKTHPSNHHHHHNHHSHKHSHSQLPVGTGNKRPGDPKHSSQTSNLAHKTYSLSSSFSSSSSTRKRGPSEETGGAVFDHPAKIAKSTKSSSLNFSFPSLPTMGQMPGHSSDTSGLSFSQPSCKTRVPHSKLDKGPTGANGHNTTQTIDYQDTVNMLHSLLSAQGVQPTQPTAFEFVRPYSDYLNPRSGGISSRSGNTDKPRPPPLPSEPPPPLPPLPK
Sequence of CDK6/CyclinD1 (Q00534 whole entry): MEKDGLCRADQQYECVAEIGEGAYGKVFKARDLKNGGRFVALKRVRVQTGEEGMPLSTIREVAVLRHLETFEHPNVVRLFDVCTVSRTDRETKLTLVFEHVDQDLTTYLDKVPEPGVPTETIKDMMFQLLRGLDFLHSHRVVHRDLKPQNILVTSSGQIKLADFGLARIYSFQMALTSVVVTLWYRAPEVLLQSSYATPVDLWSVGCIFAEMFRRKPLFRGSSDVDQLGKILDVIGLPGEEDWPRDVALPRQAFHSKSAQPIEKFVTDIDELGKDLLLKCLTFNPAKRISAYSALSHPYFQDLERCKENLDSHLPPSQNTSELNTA
Sequence of CDK6/CyclinD1 (P24385 whole entry partner): as the sequence (P24385 whole entry partner) above

Row | Compound | IC50 (CDK6/CyclinD1) [nM] | IC50 (CDK4/Cyclin D1) [nM] | IC50 (CDK7/CyclinH/MAT1) [nM] | IC50 (CDK9/CyclinT1) [nM] | IC50 (CDK1/CyclinB) [nM] | IC50 (CDK2/CyclinE1) [nM]
1 | [2H]C([2H])([2H])NS(=O)(=O)c1ccc(Nc2ncc(C(F)(F)F)c(OC3CCCC3)n2)cc1 [Example 108] | 100 to 1000 | 10 to 100 | ≥ 1000 | ≥ 1000 | 10 to 100 | < 10
2 | Cn1cc(S(=O)(=O)N2CCC(Nc3ncc(C#N)c(OC4CC5(CCC5)C4)n3)CC2)cn1 [Example 59] | 10 to 100 | < 10 | 100 to 1000 | 100 to 1000 | 10 to 100 | < 10
3 | N#Cc1cnc(Nc2ccc(S(N)(=O)=O)cc2)nc1O[C@@H]1CCCC[C@@H]1O (single isomer, unassigned) [Example 2a, cis-4-((5-cyano-4-((2-hydroxycyclohexyl)oxy)pyrimidin-2-yl)amino)benzenesulfonamide] | 10 to 100 | 10 to 100 | ≥ 1000 | 100 to 1000 | 10 to 100 | < 10
4 | CC1(O)COCCC1Oc1nc(NC2CCN(S(C)(=O)=O)CC2)ncc1C(F)(F)F (single isomer, unassigned) [Example 124b] | 100 to 1000 | 100 to 1000 | – | ≥ 1000 | ≥ 1000 | 100 to 1000
5 | CNS(=O)(=O)c1ccc(Nc2ncc(C(F)(F)F)c(OC3CCOCCC3O)n2)cc1 (single isomer, unassigned) [Example 102d, 4-((4-((5-hydroxyoxepan-4-yl)oxy)-5-(trifluoromethyl)pyrimidin-2-yl)amino)-N-(methyl-d3)benzenesulfonamide] | – | ≥ 1000 | – | – | – | < 10
6 | Cn1cc(S(=O)(=O)N2CCC(Nc3ncc(C(F)(F)F)c(OC4CCOCC4(C)O)n3)CC2)cn1 (single isomer, unassigned) [Example 125b] | 100 to 1000 | 100 to 1000 | 100 to 1000 | – | – | 10 to 100
7 | N#Cc1cnc(Nc2ccc(S(N)(=O)=O)cc2)nc1-c1cccc(F)c1 [Example 95] | ≥ 1000 | 100 to 1000 | ≥ 1000 | – | 10 to 100 | 10 to 100
8 | C[C@]1(O)CCC[C@H]1Oc1nc(NC2CCN(S(C)(=O)=O)CC2)ncc1C#N (relative stereo) [Example 5a, cis-4-((2-hydroxy-2-methylcyclopentyl-4,4-d2)oxy)-2-((1-(methylsulfonyl)piperidin-4-yl)amino)pyrimidine-5-carbonitrile] | 10 to 100 | < 10 | – | 100 to 1000 | 10 to 100 | < 10
9 | [2H]C([2H])([2H])NS(=O)(=O)c1ccc(Nc2ncc(C(F)(F)F)c(OC3CCOCCC3O)n2)cc1 (single isomer, unassigned) [Example 102a, 4-((4-((5-hydroxyoxepan-4-yl)oxy)-5-(trifluoromethyl)pyrimidin-2-yl)amino)-N-(methyl-d3)benzenesulfonamide] | ≥ 1000 | ≥ 1000 | ≥ 1000 | – | 100 to 1000 | < 10
10 | CC1(O)CC(F)(F)CC1Oc1nc(NC2CCN(S(=O)(=O)CC3CC3)CC2)ncc1C#N (single isomer, unassigned) [Example 44a] | 10 to 100 | 100 to 1000 | – | ≥ 1000 | 100 to 1000 | 10 to 100
11 | CNc1cccc(-c2nc(Nc3ccc(S(N)(=O)=O)cc3)ncc2C#N)c1 [Example 97] | ≥ 1000 | 100 to 1000 | ≥ 1000 | – | 100 to 1000 | 10 to 100
12 | CNS(=O)(=O)c1ccc(Nc2ncc(C(F)(F)F)c(O[C@H]3CCOC[C@H]3O)n2)c(F)c1 (single isomer, unassigned) [Example 101b, cis-3-fluoro-4-((4-((3-hydroxytetrahydro-2H-pyran-4-yl)oxy)-5-(trifluoromethyl)pyrimidin-2-yl)amino)-N-(methyl-d3)benzenesulfonamide] | ≥ 1000 | ≥ 1000 | – | – | – | –
13 | C[C@]1(O)CC(F)(F)C[C@H]1Oc1nc(NC2CCN(S(C)(=O)=O)CC2)ncc1C#N (relative stereo) [Example 4b, cis-4-((4,4-difluoro-2-hydroxy-2-methylcyclopentyl)oxy)-2-((1-(methylsulfonyl)piperidin-4-yl)amino)pyrimidine-5-carbonitrile] | 10 to 100 | 100 to 1000 | – | ≥ 1000 | 100 to 1000 | 10 to 100
14 | [2H]C([2H])([2H])NS(=O)(=O)c1ccc(Nc2ncc(C(F)(F)F)c(O[C@H]3CCCOC[C@H]3O)n2)cc1 (single isomer, unassigned) [Example 103b, cis-4-((4-((3-hydroxyoxepan-4-yl)oxy)-5-(trifluoromethyl)pyrimidin-2-yl)amino)-N-(methyl-d3)benzenesulfonamide] | – | ≥ 1000 | ≥ 1000 | – | 100 to 1000 | –
15 | CC1(O)CCCC1Oc1nc(NC2CCN(S(=O)(=O)C(F)(F)F)CC2)ncc1C#N (single isomer, unassigned) [Example 42b] | 100 to 1000 | 100 to 1000 | ≥ 1000 | – | – | 10 to 100
